In publication PMC8151848, “Tambjamines and Prodiginines: Biocidal Activity against Trypanosoma cruzi” (Pharmaceutics, 2021):
Entries after “also recorded” stand apart in the source; their conditions may differ. Read-outs that look alike come from different tables or passages of the source.

Assays:
[1] = Cytotoxicity assay (resazurin) in Hep G2 cells; type: cell-based, human; details: human, n = 9; for cytotoxicity at 24 h, 1 µM: Hep G2, 1 µM, read-out: Cytotoxicity (% cell growth inhibition) at 1 µM ± SD; for cytotoxicity at 24 h, 10 µM: Hep G2, 10 µM, read-out: Cytotoxicity (% cell growth inhibition) at 10 µM ± SD; for cytotoxicity at 24 h, 100 µM: Hep G2, 100 µM, read-out: Cytotoxicity (% cell growth inhibition) at 100 µM ± SD
Description: Mouse L-929 fibroblasts (NCTC clone 929, ECACC 88102702) were used for both drug toxicity and infection assays. Cell line was obtained from Dr. Concepció Soler, Dept. Pathology & Experimental therapeutics, Faculty of Medicine and Health Sciences, University of Barcelona, Spain. Human hepatocarcinoma Hep G2 cells (American Type Culture Collection (ATCC HB-8065)) were employed only in the drug toxicity assays and were obtained from Dr. Neus Agell, Cell Biology Research Group, Faculty of Medicine and Health Sciences, University of Barcelona, Spain.
Cells were seeded by trypsinization in 96-well microplates (L-929: 4 × 10^3 cells/well; Hep G2: 1.5 × 10^4 cells/well) and incubated for 24 h at 37 °C to allow cell attachment. On the following day, the medium was discarded and replaced with a fresh medium containing the different concentrations of the drugs. […] Medium, growth, and drug blanks were used in each test as controls. Plates were incubated again for another 24 h. After treatment, 20 µL of resazurin diluted in 1X phosphate-buffered saline (PBS; Sigma Aldrich) was added at a final concentration of 70 µM. The plates were incubated for another 24 h, after which fluorescence was measured in a microplate reader (FLUOstar OPTIMA, BMG LABTECH GmbH, Ortenberg, Germany) at an excitation wavelength of 530 nm and an emission wavelength of 590 nm. Each concentration was tested in triplicate and the experiments were repeated three times independently. Results indicated the percentage of toxicity (% T value). (3) % Toxicity=100−(AE−AEB)/(AC−ACB)×100 where AE is the absorbance of the experimental group, AEB the absorbance of the drug blank, AC the absorbance of the untreated cells, and ACB the absorbance of the culture medium blank. […]

[2] = tested on: epimastigotes of T. cruzi (CL strain, clone B5); set-up: method as in PMID 31210760; details: read-out: IC50 against epimastigotes of T. cruzi (earlier study); cited from earlier work
[3] = tested on: intact epimastigotes of T. cruzi; test: Oxygen consumption inhibition analysis (high-resolution respirometry); type: cell-based, Trypanosoma cruzi; details: for % Oxygen Uptake Inhibition (¾ IC50): compound at ¾ IC50; for effect on respiratory inhibition (in words): ½ and ¾ IC50
Protocol: Intact epimastigotes were collected by centrifugation, washed twice in PBS, and resuspended with respiration buffer containing 125 mM sucrose, 65 mM KCL, 10 mM Tris-HCl (pH 7.2), 1 mM […], and 2.5 mM K2PO4. They were then added to a final concentration of 25 × 10^6 cells/mL.
To evaluate the effect of the different drugs on mitochondrial function, we measured mitochondrial respiration in the cells before and after the addition of increasing volumes of the compounds. Each compound was added in titrations until reaching concentrations of ½ and ¾ IC50. Finally, antimycin A (AA) was added to determine the residual oxygen consumption (ROX) through the inhibition of complex III of the electron transport chain. The ROX value was subtracted from the O2 flux as a baseline for all the respiratory states.
Mitochondrial respiration was measured by high-resolution respirometry (OROBOROS Oxygraph-2k; OROBOROS Instruments, Innsbruck, Austria). Data were analyzed by using the Software DatLab Online Data Acquisition and Analysis (OROBOROS Instruments, Innsbruck, Austria). All respirometry assays were performed at a constant temperature of 28 °C, with the volume of each chamber being 2 mL. The oxygen flux values are expressed relative to the cell concentration per second (pmol/sec/10^6 cells). The effect of each compound on mitochondrial function is shown as the percentage of inhibition of oxygen flux.

[4] = tested on: Entamoeba; set-up: method as in PMID 32196500; details: read-out: IC50 against Entamoeba; cited from earlier work
[5] = tested on: Giardia; set-up: method as in PMID 32196500; details: read-out: IC50 against Giardia; cited from earlier work
[6] = tested on: Trypanosoma brucei; set-up: method as in PMID 32196500; details: read-out: IC50 against Trypanosoma brucei; cited from earlier work
[7] = POPC vesicles, external nitrate; ref 1 (Hernando et al., Sci. Rep., 2018); read-out: EC50 (µM) NO3–/Cl–; cited from earlier work
[8] = Hep G2 hepatocarcinoma cells (ATCC HB-8065)

| Structure (SMILES) | cytotoxicity at 24 h, 1 µM [1, 8] [%] | cytotoxicity at 24 h, 10 µM [1, 8] [%] | cytotoxicity at 24 h, 100 µM [1, 8] [%] | IC50 [2] [µM] | % Oxygen Uptake Inhibition (½ IC50) ([3]; compound at ½ IC50) [%] | % Oxygen Uptake Inhibition (½ IC50) ([3]; compound at ½ IC50, listed as natural prodigiosin) [%] | Oxygen Uptake (pmol/sec/Million Cells) ([3]; compound at ½ IC50, n = 4) | % Oxygen Uptake Inhibition (¾ IC50) [3] [%] | Oxygen Uptake (pmol/sec/Million Cells) ([3]; compound at ¾ IC50, n = 4) | effect on respiratory inhibition (in words) [3] | IC50 [4] [nM] | IC50 [5] [nM] | IC50 [6] [nM] | cytotoxicity at 24 h, 10 µM [1] [%] | cytotoxicity at 24 h, 100 µM [1] [%] | EC50 [7] [µM] |
| --- | --- | --- | --- | --- | --- | --- | --- | --- | --- | --- | --- | --- | --- | --- | --- | --- |
| O=C(Cn1ccnc1[N+](=O)[O-])NCc1ccccc1 [Benznidazole, reference compound] | 0 | 0.44 ± 0.61 | 0.18 ± 0.08 | 18 |  |  |  |  |  |  |  |  |  |  |  |  |
| CCCCCC1=C/C(=C/c2[nH]c(-c3ccc[nH]3)cc2OC)N=C1C [Natural prodigiosin, prodigiosin] |  |  |  |  | 72.8 | 73 | 0.73 ± 0.06 |  |  |  |  |  |  |  |  |  |
| COC1=CC(c2cc3ccccc3[nH]2)=N/C1=C\c1[nH]c(C)cc1C [Obatoclax, reference compound] | 10.4 ± 4.8 | 63.3 ± 16.9 | 74.8 ± 4.06 |  | 0 |  | 2.69 ± 0 | 0 | 2.69 ± 0 | little or no effect | 500 | 900 | 40 |  |  |  |
| CCCCCC1=C/C(=C/c2[nH]c(-c3ccc[nH]3)cc2OC)N=C1C [Synthetic prodigiosin, prodigiosin] |  |  |  |  | 13.58 |  | 2.33 ± 0.09 | 35.18 | 1.74 ± 0.17 |  |  |  |  | 90.5 ± 0.82 | 95.2 ± 0.94 |  |
| CCc1c(-c2ccc[nH]2)[nH]c(/C=N/C2CCCCC2)c1C [MM3] | 0.99 ± 0.92 | 24.9 ± 8.92 | 94.36 ± 0.5 |  | 41.26 |  | 1.58 ± 0.05 | 42 | 1.56 ± 0.06 |  |  |  |  |  |  | 0.035 |
| CCc1c(-c2ccc[nH]2)[nH]c(/C=N/c2ccc(C(C)(C)C)cc2)c1C [MM4] | 0 | 19.1 ± 3.94 | 85.2 ± 9.91 |  | 2.60 |  | 2.62 ± 0.04 | 2.97 | 2.61 ± 0.04 | little or no effect; also recorded: no inhibitory effect |  |  |  |  |  |  |
